The assay addresses T1, GPR119 (Homo sapiens, UniProt Q8TDV5).
T1 sequence (Q8TDV5 1-335): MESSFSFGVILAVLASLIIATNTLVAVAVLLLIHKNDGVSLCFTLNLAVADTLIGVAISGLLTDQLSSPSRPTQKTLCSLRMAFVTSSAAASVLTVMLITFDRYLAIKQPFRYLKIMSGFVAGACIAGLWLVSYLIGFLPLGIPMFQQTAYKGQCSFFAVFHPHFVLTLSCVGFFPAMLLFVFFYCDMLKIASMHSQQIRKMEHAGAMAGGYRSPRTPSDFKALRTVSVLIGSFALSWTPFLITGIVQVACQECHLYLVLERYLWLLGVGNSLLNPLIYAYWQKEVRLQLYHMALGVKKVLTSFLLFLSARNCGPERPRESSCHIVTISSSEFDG
As to the kind of experiment: LANCE Ultra cAMP assay: stimulation of GPR119-mediated cAMP production in CHO cells stably expressing human GPR119 receptor. Type of assay: cell-based. Conditions: for Emax: CHO. How it is done:
The potency of GPR119 receptor agonists was assessed by measuring the stimulation of GPR119-mediated cAMP production with LANCE Ultra cAMP assay (Perkin Elmer, TRF0264) in CHO cells stably expressing human GPR119 receptor (Chantest, cat. #A633). CHO-GPR119 cells were cultured in DMEM/F12 medium supplemented with 10% FBS and 1% NEAA at 37° C., 5% CO2, aliquoted and frozen in liquid nitrogen.
For assay, cells were thawed in a water bath at 37° C., washed in Hank's Balanced Salt Solution (HBSS) and resuspended in Stimulation Buffer 1 (SB1) for 30 min: 5 mM HEPES, pH 7.2-7.4, 0.1% BSA in HBSS. […] The ULight-anti-cAMP antibody (Perkin Elmer, TRF0264) was added to the cell suspension making Mix [Cell suspension/4× ULight-anti-cAMP antibodies]. […] The assay plate was centrifuged 200 g, 5 sec.
Serial dilution (100×) of tested compounds were prepared in DMSO in the range of from 30 nM to 1 mM with half-log step in 384-well plates (Greiner, 781280) using Biomek 2000. 10 test concentrations in two repeats were prepared for each CRC. […] The assay plate was incubated 30 minutes at room temperature on a shaker, 250 rpm to allow GPR119 receptor stimulation. The cAMP level was determined according to the standard kit supplier protocol (PerkinElmer, cat. #TRF0264).
(§1) The stock solution of the Eu-cAMP tracer (Perkin Elmer, TRF0264) was diluted 1:100 in cAMP Detection Buffer (Perkin Elmer, TRF0264), making 2× working concentration and added to the assay plate, 10 μL per well. Assay plate was centrifuged 180 g, 1 sec. Then the assay plate was incubated for 60′ at room temperature on shaker, 250 rpm to allow cAMP detection. The TR-FRET signal was measured at Ex-340 nm/Em-615 and Ex-340 nm/Em-665 nm on the reader Tecan M1000. 0% of cAMP stimulation corresponds to the cells with DMSO only, 100% of cAMP stimulation corresponds to the cells with 10 uM Forskolin. The EC50 value defined as the concentration of the drug that gives half-maximal response, were calculated using GraphPad Prizm 5.0 software with forskolin was used as references at each test. Entries 1-17 in Table A-2 show the biological activity of certain representative compounds using the protocol as described above.
For assay, cells were thawed in a water bath at 37° C., washed in Hank's Balanced Salt Solution (HBSS) and resuspended in Stimulation Buffer 1 (SB1) for 30 min: 5 mM HEPES, pH 7.2-7.4, 0.1% BSA in HBSS. […] The ULight-anti-cAMP antibody (Perkin Elmer, TRF0264) was added to the cell suspension, making Mix [Cell suspension/4× ULight-anti-cAMP antibodies]. […] The assay plate was centrifuged 200 g, 5 sec.
as §1, with “1-14” for “1-17”, “B-2” for “A-2”
(TR-FRET usually uses a lanthanide donor and a delayed reading to cut background.)

Setting [1] is: Table A-2 entries 18-25, modified protocol, 500 cells/well, read-out: % cAMP Max. relative to forscolin.
The mark [2] stands for this setting: Table A-2 entries 18-25, modified protocol, 500 cells/well.
The mark [3] stands for this setting: Table B-2 entries 15-39, modified protocol, 500 cells/well, read-out: % cAMP Max.
Setting [4] is: Table B-2 entries 15-39, modified protocol, 500 cells/well.
The mark [5] stands for this setting: Table B-2 entries 1-14, protocol as described (800 000 cells/mL, 5 uL/well), CHO-GPR119 cells.
[6] abbreviates: Table A-2 entries 1-17, protocol as described, 100% = 10 uM Forskolin, read-out: % cAMP Max. relative to forscolin.
[7] abbreviates: Table A-2 entries 1-17, protocol as described (800 000 cells/mL, 5 uL/well), CHO-GPR119 cells.
[8] abbreviates: reference ligands in modified protocol, 500 cells/well.

Where two headings read alike, the source gives them in different places. Bounds are passed on as bounds.

The term EC50 denotes the concentration needed to bring the measured effect to its halfway point. Turning to `CCc1cnc(N2CC[C@H](COc3ccc(-c4ccc5c(c4)OCS5(=O)=O)cc3F)C2)nc1` [Example A-86, (S)-6-(4-((1-(5-Ethylpyrimidin-2-yl)pyrrolidin-3-yl)methoxy)-3-fluorophenyl)-2H-benzo[d][1,3]oxathiole 3,3-dioxide], under setting [1], the Emax stood at 96%. In addition, the midpoint of the response under setting [2], the EC50, lay at 166 nM.

For `CC(C)CC(=O)N1CCC(COc2ccc(-c3ccc4c(c3)OCS4)cc2F)CC1` [Example B-40, 1-(4-((4-(Benzo[d][1,3]oxathiol-6-yl)-2-fluorophenoxy)methyl)piperidin-1-yl)-3-methylbutan-1-one], the Emax under setting [3] worked out at 50%. Further, it took 2000 nM to reach a half-maximal effect under setting [4] (EC50).

With `CCc1cnc(N2CCC[C@H]2COc2ccc(-c3ccc4c(c3)OCS4(=O)=O)cc2F)nc1` [Example A-80], the Emax under setting [1] is 25%. Besides, under setting [2], a half-maximal effect (EC50) was put at 1310 nM.

With `CC(C)c1cnc(N2CCC(COc3ccc(-c4ccc5c(c4)OCS5(=O)=O)cc3F)CC2)nc1` [Example A-66, 6-(3-Fluoro-4-(1-(5-isopropylpyrimidin-2-yl)piperidin-4-yl)methoxy)phenyl-2H-benzo[d][1,3]oxathiole 3,3-dioxide], the Emax under setting [1] turned out to be 80%. The half-maximal effective concentration (EC50) under setting [2] was found to be 19.1 nM.

The compound `CC(C)(C)OC(=O)N1CCC(COc2ccc(-c3ccc4c(c3)OC[S+]4[O-])cc2F)CC1` (centres unmarked) [Example B-17, tert-Butyl 4-((2-fluoro-4-(3-oxido-1,3-benzoxathiol-6-yl)phenoxy)methyl) piperidine-1-carboxylate] came in with a 50% effective concentration (EC50) under setting [5] above 100 nM.

Regarding `CC(C)c1cnc(N2CCC(COc3ccc(-c4ccc5c(c4)OCS5)cc3F)CC2)nc1` [Example B-38, 2-(4-((4-(Benzo[d][1,3]oxathiol-6-yl)-2-fluorophenoxy)methyl)piperidin-1-yl)-5-isopropylpyrimidine], the Emax under setting [3] came to 78%. Further, under setting [4], a half-maximal effect (EC50) was put at 10.5 nM.

Take `[O-][S+]1COc2cc(-c3ccc(OCC4CCN(c5ccc(C(F)(F)F)cn5)CC4)c(F)c3)ccc21` (centres unmarked) [Example B-29, 6-(3-Fluoro-4-((1-(5-(trifluoromethyl)pyridin-2-yl)piperidin-4-yl)methoxy)phenyl)-2H-benzo[d][1,3]oxathiole 3-oxide]: under setting [5], a half-maximal response (EC50) required 52 nM.

Consider `NC(=O)N1CCC(COc2ccc(-c3ccc4c(c3)OCS4(=O)=O)cc2F)CC1` [A-20], for which the Emax under setting [6] is 70%. The compound also yielded an EC50 under setting [7] of at least 10000 nM.

Regarding `[O-][S@+]1COc2cc(-c3cnc(OCC4CCN(c5ncc(Cl)cn5)CC4)nc3)ccc21` [Example B-62, (S)-6-(2-((1-(5-Chloropyrimidin-2-yl)piperidin-4-yl)methoxy)pyrimidin-5-yl)-2H-benzo[d][1,3]oxathiole 3-oxide], the Emax under setting [3] was 66%. Under setting [4], this compound came in with an EC50 of 43.5 nM.

`CC(C)c1cnc(N2CCC(COc3ccc(-c4ccc5c(c4)OC[S+]5[O-])cc3F)CC2)nc1` (centres unmarked) [Example B-28, 6-(3-Fluoro-4-((1-(5-isopropylpyrimidin-2-yl)piperidin-4-yl)methoxy)phenyl)-2H-benzo[d][1,3]oxathiole 3-oxide]: a half-maximal response under setting [5] (EC50) required 3 nM.

With `CCc1ccnc(N2CC[C@H](COc3ccc(-c4ccc5c(c4)OCS5(=O)=O)cc3F)C2)n1` [Example A-92, (S)-6-(4-((1-(4-Ethylpyrimidin-2-yl)pyrrolidin-3-yl)methoxy)-3-fluorophenyl)-2H-benzo[d][1,3]oxathiole 3,3-dioxide], the Emax under setting [1] worked out at 90%. It took 58 nM to reach a half-maximal effect under setting [2] (EC50).

On to `COc1cnc(N2CCC(COc3ccc(-c4ccc5c(c4)OCS5)cc3F)CC2)nc1` [Example B-39, 2-(4-((4-(Benzo[d][1,3]oxathiol-6-yl)-2-fluorophenoxy)methyl)piperidin-1-yl)-5-methoxpyrimidine], for which the Emax under setting [3] turned out to be 64%. Moreover, the response under setting [4] was half-maximal at 2900 nM (EC50).

Take `CC(C)[C@H](N)C(=O)N1CCC(COc2ccc(-c3ccc4c(c3)OCS4(=O)=O)cc2F)CC1` [A-19]: the Emax under setting [6] is 65%. For the same compound, it took 4080 nM to reach a half-maximal effect under setting [7] (EC50).

On to `CC(C)C(=O)N1CCC(COc2ccc(-c3ccc4c(c3)OCS4(=O)=O)cc2F)CC1` [A-21], for which the Emax under setting [6] was found to be 77%. In addition, the EC50 under setting [7] was 37 nM.

For the compound `CCc1cnc(N2CCC(COc3ccc(-c4ccc5c(c4)OC[S@+]5[O-])cc3F)CC2)nc1` [Example B-52], the Emax under setting [3] was determined as 73%. This compound gave a 50% effective concentration (EC50) under setting [4] of 19.5 nM.

The compound `CCOc1cnc(N2CCC(COc3ccc(-c4ccc5c(c4)OC[S+]5[O-])cc3F)CC2)nc1` (centres unmarked) [Example B-27, 6-(4-((1-(5-Ethoxypyrimidin-2-yl)piperidin-4-yl)methoxy)-3-fluorophenyl)-2H-benzo[d][1,3]oxathiole 3-oxide] returned an EC50 under setting [5] of 4.7 nM.

As to `O=S1(=O)COc2cc(-c3cnc(OCC4CCN(c5ncc(Cl)cn5)CC4)nc3)ccc21` [A-29, 6-(2-((1-(5-Chloropyrimidin-2-yl)piperidin-4-yl)methoxy)pyrimidin-5-yl)-2H-benzo[d][1,3]oxathiole 3,3-dioxide], the Emax under setting [6] is 80%. A half-maximal response under setting [7] (EC50) required 33.1 nM.

With `CCc1ccnc(N2CCC(COc3ccc(-c4ccc5c(c4)OC[S+]5[O-])cc3F)CC2)n1` (centres unmarked) [Example B-35, 6-(4-((1-(4-Ethylpyrimidin-2-yl)piperidin-4-yl)methoxy)-3-fluorophenyl)-2H-benzo[d][1,3]oxathiole 3-oxide], under setting [3], the Emax stood at 61%. The 50% effective concentration (EC50) under setting [4] was found to be 27.3 nM.

Turning to `CCc1cnc(N2CC[C@@H](COc3ccc(-c4ccc5c(c4)OC[S@+]5[O-])cc3F)C2)nc1` [Example B-78], the Emax under setting [3] was 72%. Under setting [4], this compound returned an EC50 of 115 nM.

Take `CCc1ccnc(N2CCC(COc3ccc(-c4ccc5c(c4)OCS5)cc3F)CC2)n1` [Example B-26]: the EC50 under setting [5] was above 500 nM.

In the case of `CCc1cnc(N2CC[C@@H](COc3ccc(-c4ccc5c(c4)OC[S+]5[O-])cc3F)C2)nc1` (stereo partly drawn) [Example B-67, 6-(4-(((R)-1-(5-Ethylpyrimidin-2-yl)pyrrolidin-3-yl)methoxy)-3-fluorophenyl)-2H-benzo[d][1,3]oxathiole 3-oxide], the Emax under setting [3] was found to be 74%. Further, the EC50 under setting [4] worked out at 54 nM.

`CCCCCCCC/C=C\CCCCCCCC(=O)NCCO` [oleoyl ethanolamide, reference compound]: under setting [8], the midpoint of the response, the EC50, lay at 592 nM and the “maximum cAMP stimulation” value is recorded as 100%.

As to `CCc1cnc(N2CCC(COc3ccc(-c4ccc5c(c4)OCS5(=O)=O)cc3F)CC2)nc1` [A-24], under setting [6], the Emax came to 77%. This compound also gave a concentration for a half-maximal effect (EC50) under setting [7] of 2.5 nM.

Source of the values: patent US10906894B2, “Compounds containing benzo[d][1,3]oxathiole, benzo[d][1,3]oxathiole 3-oxide or benzo[d][1,3]oxathiole 3,3-dioxide and methods/uses thereof as agonists of g protein-coupled receptor 119” (PRAMANA PHARMACEUTICALS INC., priority 2016, dated 2021).
